The test system of data set [1] is GFP^2-RG-RLuc thrombin sensor. As to the kind of experiment: BRET^2 thrombin sensor in microfluidic chip with optical detection chamber. It counts as biochemical. The source says:
In a BRET^2 system, Renilla luciferase (RLuc) with coelenterazine 400a (CLZ400A) substrate was used as the photon donor and GFP^2 was used as the acceptor molecule. As the luminescence of BRET^2 is 100-fold smaller than that of the BRET^1.5, the BRET^2 reaction requires efficient mixing at optimal temperature, detection chamber size, flow rates and concentrations to produce highest bioluminescence signal. Thus, this system is used to evaluate different mixing mechanisms (FIG. 8), reaction chamber designs and reaction conditions.
PDMS chips with a Y-shaped microchannel with three mixing elements (FIG. 8), with a rectangular cross section in the microchannels (200 μm in width and 30 μm in height) was used to monitor BRET^2 assays. The detection chambers with different diameter and height were located at the end of the microchannels. The emitting bioluminescence was collected by a multimode optical fiber located underneath the detection chamber. The emissions will be split by dichroic block and going through two band pass filters corresponding to emission band of the donor (430 nm-455 nm) and the emission band of the acceptor (515 nm-555 nm) before going into two corresponding photomultiplier tubes (Hamamatsu H7421). […]
Approximately 75% decrease in BRET^2 signal was measured for on-chip reaction at input flow rate of 50 μL/hr (FIG. 12).
(In general: BRET reads energy transfer from a luciferase to a nearby fluorophore.)

In data set [2] the test system is BRET^2 based thrombin biosensor. As to conditions: cited from earlier work.
For a further data set, the system named is GFP^2-RG-RLuc biosensor. As to the kind of experiment: Hybrid BRET (BRET^H) thrombin cleavage assay, microplate. Conditions: 54 nM thrombin, 90 minutes, 30° C.; 1 μM fusion protein, 5 μM native coelenterazine. It counts as biochemical. The source says: A combination of BRET^1 and BRET^2 techniques was used and referred to herein as hybrid BRET. Specifically, RLuc with native coelenterazine substrate was used as the bioluminescent donor and GFP^2 as the acceptor molecule. The donor and acceptor were linked by a peptide sequence containing the thrombin cleavage site ([…]↓ GSLQ (RG)) (GFP^2-RG-RLuc) and expressed in E. coli.
GFP^2-RG-RLuc biosensor was expressed and purified as reported previously (Dacres et al. 2009a). The purified fusion protein was in thrombin cleavage buffer (10 mM Tris (pH 8.0), 100 mM NaCl, 1 mM EDTA). The final concentration of the native coelenterazine substrate (Biosynth) used for microfluidic based assays was 58.6 μM and 5 μM for plate-reader based assays. 1 unit (U)/μl thrombin protease (Amersham Biosciences) solution was prepared in 1× phosphate buffer saline (PBS).
Simultaneous dual emission hybrid BRET measurements were carried out both in a microplate using a SpectraMax M2 spectrofluorimeter (Molecular Devices) and in the microfluidics apparatus described below. Spectral scans of BRET constructs were recorded using the luminescence scan mode between 400 and 650 nm on addition of 5 μM native coelenterazine substrate to 1 μM of biosensor. […]
Using the microplate spectrometer, hybrid BRET ratios were calculated as the ratio of bioluminescence emissions measured at 500 nm and 470 nm. […]

“And” between values parts separate entries of the source, which are not always exact repeats. Equal values may be shown once.

As for thrombin, the “change in BRET^2 ratio (GFP/RLuc) after digestion of the sensor” value in data set [1] (270 pM thrombin) is reported as “approximately tenfold”. For the same substance, in data set [1] (540 nM thrombin, 1 μM sensor, 12.5 μM substrate, two-inlet device, 50 μL/hr), the “decrease in BRET^2 signal, on-chip reaction” value is “Approximately 75%”. Also, in data set [2], the kcat of thrombin result is “≈ 85 s^−1”. Also, in the data set with GFP^2-RG-RLuc biosensor, the “BRET^H ratio following thrombin cleavage” value was 0.75±0.04 and 0.79±0.05; the “decrease in BRET^H ratio following thrombin cleavage” value was “approximately 32%”.

(Values after US11385234B2, “Methods and systems for detecting an analyte or classifying a sample” (Commonwealth Scientific and Industrial Research Organisation, priority 2012, dated 2022).)
